The record followed here is EP0120304A2, “Substituted 4,10-dihydro-10-oxothieno benzoxepins and intermediates thereof, a process for their preparation and their use as medicaments” (HOECHST-ROUSSEL PHARMACEUTICALS INCORPORATED, priority 1983, dated 1984).

Like-named read-outs stand apart in the source and are kept apart here.

Assay [1] deals with 2-phenyl-1,4-benzoquinone-induced writhing. In words: 2-phenyl-1,4-benzoquinone-induced writhing test (analgesia). It counts as in vivo, mice. The following applies: for ED50: Mus musculus, po. From the text: Compounds of the present invention are also useful as analgesic agents due to their ability to alleviate pain in mammals.
The next assay relates to rat paw edema. In words: carrageenin induced rat paw edema anti-inflammatory assay. It counts as in vivo. The following applies: for ED50: Rattus norvegicus.

As for `CC(CO)c1ccc2c(c1)C(=O)c1sccc1CO2` (racemic) [(±)-2-(4,10-Dihydro-10-oxothieno[3,2-c][1]benzoxepin-8-yl)propanol], the ED50 in assay [1] (Phenylquinone Writhing, read-out: ED50 (mg/kg; p.o.)) was found to be 4.3 mg/kg; in the assay on rat paw edema (2 h, read-out: ED50 (mg/kg; 120 min.)), 4.3 mg/kg.

On to `CC(=O)OCCc1ccc2c(c1)C(=O)c1sccc1CO2` [2-(4,10-Dihydro-10-oxothieno[3,2-c][1]benzoxepin-8-yl) ethyl acetate], for which the “ED50 (mg/kg; 120 min.)” value in the assay with rat paw edema is recorded as 11.4 mg/kg.

For the compound `O=C1c2cc(CCO)ccc2OCc2ccsc21` [(4,10-Dihydro-10-oxothieno[3,2-c][1]benzoxepin-8-yl) ethanol], the “ED50 (mg/kg; p.o.)” value in assay [1] (p.o., Phenylquinone Writhing) is 19.7 mg/kg. Further, the “ED50 (mg/kg; 120 min.)” value in the assay on rat paw edema turned out to be 34.2 mg/kg.

Consider `CC(C)Cc1ccc(C(C)C(=O)O)cc1` (stereo not shown) [ibuprofen, reference compound], for which the ED50 in assay [1] (orally, in a similar test, read-out: analgesic ED50) came out at 10.4 mg/kg.

On to `COc1ccc2c(c1)c(CC(=O)O)c(C)n2C(=O)c1ccc(Cl)cc1` [indomethacin, reference compound], for which, in the assay with rat paw edema (po, read-out: anti-inflammatory ED50), the ED50 came to 6 mg/kg.
